# From PubChem BioAssay AID2060896 (Molecular Pharmacology Branch, DTP, NCI, 2025)
# Test system: 941728-121-R-J1-PDC complex spheroid viability
# Experiment: Anticancer human tumor 941728-121-R-J1-PDC patient-derived lung adenocarcinoma cell line growth inhibition [RAS]
# Conditions: for IC50: curve of first compound; for viability, T/C: stronger effect = lower value
# Source text: RAS pathway inhibitors in Combinations in Complex Spheroids
# A high-throughput screen of multi-cell type tumor spheroids was designed to identify active combinations of RAS pathway inhibitors and targeted small molecules. Complex spheroids include a stromal component modeled by human endothelial cells (HUVEC) and fibroblasts modeled by human mesenchymal stem cells (MSCs). The concentration ranges selected for each drug and investigational agent were based upon clinically achievable concentrations if the clinical Cmax of the agent was known.
# Compounds. The drugs and investigational agents: abemaciclib (NSC768073), cobimetinib (NSC768068), divarasib (GDC6063, NSC841802), docetaxel (NSC628503), GDC-1971 (RLY-1971, NSC841576), gemcitabine (NSC613327), inavolisib (NSC800729), ipatasertib (NSC767898), KB-0742 (NSC834161), MRTX-1133 (NSC836407), osimertinib (NSC779217), RMC-4630 (NSC839698), RMC-6236 (NSC851965), RMC-6291 (NSC852671), Ro-3306 (NSC812927), sapanisertib (NSC764658), SN-38 (NSC673596), staurosporine (NSC755774), SY5609 (NSC837396), and tovorafenib (DAY101, NSC766906), were obtained from the National Cancer Institute (NCI) Developmental Therapeutics Program Chemical Repository. The FDA-approved anticancer drug set is available from the NCI Developmental Therapeutics Program. […] The stock solutions were prepared in dimethyl sulfoxide (DMSO, Sigma-Aldrich, St. Louis, MO, cat. D2650) at 800-fold the tested concentration and stored at -70 degrees C prior to their use. All drugs and investigational agents were tested over a range starting from a high concentration at or near the clinical Cmax and decreasing in half-log increments. If the clinical Cmax for an agent had not been determined, the highest concentration tested was 10 microM.
# Cell Culture. All cells were maintained in an incubator at 37 degrees C and 5% CO2 with 95% humidity. The PDC lines were cultured according to standard operating procedures established by the NCI PDMR. All PDCs were thawed and cultured in Matrigel-coated flasks prepared with a working solution of 1X Ham's F-12 nutrient mix, without supplementation (Invitrogen, Waltham, MA, cat. 11765054), 100 U/mL penicillin-streptomycin (Invitrogen, cat. 15140122), and 2.5% Matrigel (Corning Inc., Corning, NY, cat. 354248) for the first three passages. The 362531-283-R-J2-PDC and 782815-120-R-J1-PDC lines were cultured in 6C/Colon 1B media, which includes advanced DMEM/F-12 (Thermo Fisher Scientific, cat. 12634028), 10 mM HEPES (Thermo Fisher Scientific, cat. 15630080), 1X GlutaMAX supplement (Thermo Fisher Scientific, cat. 35050061), 0.1 mg/mL primocin (InvivoGen, San Diego, CA, cat. ant-pm-2), 10% defined fetal bovine serum, heat inactivated (HyClone Laboratories Inc., Logan, UT, cat. SH30070.03HI), 50% L-WRN conditioned media (ATCC, cat. CRL-3276), 1.25 mM N-Acetyl-L-cysteine (Sigma-Aldrich, cat. A9165), 10 mM nicotinamide (Sigma-Aldrich, cat. N0636), 1X B-27 supplement (Thermo Fisher Scientific, cat. 17504044), 1X N-2 supplement (Thermo Fisher Scientific, cat. 17502048), 50 ng/mL human EGF (Thermo Fisher Scientific, cat. PHG0311), and 10 microM Y-27632 dihydrochloride (Tocris Bioscience, cat. 1254). The K12877-001-R-J1-PDC line was cultured in 6I media, which includes all 6C/Colon 1B media plus 10 ng/mL human FGF-10 (PeproTech, cat. 100-26), 1 ng/mL human FGF-2 (PeproTech, cat. 100-18B), 1 µM prostaglandin E2 (Tocris Bioscience, cat. 2296), […] hydrocortisone (Sigma-Aldrich, cat. H4001), and […] bovine insulin (Sigma-Aldrich, cat. I6634). The K86415-001-R-J1-PDC line was cultured in 6D media, which includes all 6C/Colon 1B media components minus the L-WRN conditioned media. The 485176-168-R4-J1-PDC was cultured in PANC media, which includes all 6C/Colon 1B media plus 100 ng/mL human FGF-10 (PeproTech, cat. 100-26), 500 nM SB-431542 (Selleckchem, cat. S1067), and 10 nM gastrin (Tocris Bioscience, cat. 3006). […]
# [1] = second compound 0.000949 µM, first compound 0.0316 µM
# [2] = second compound 0.000949 µM, first compound 0.1 µM
# [3] = second compound 0.000949 µM, first compound 0.316 µM
# [4] = second compound 0.000949 µM, first compound 1 µM
# [5] = second compound 0.003 µM, first compound 0.0316 µM
# [6] = second compound 0.003 µM, first compound 0.1 µM
# [7] = second compound 0.003 µM, first compound 0.316 µM
# [8] = second compound 0.003 µM, first compound 1 µM
# [9] = second compound 0.00949 µM, first compound 0.0316 µM
# [10] = second compound 0.00949 µM, first compound 0.1 µM
# [11] = second compound 0.00949 µM, first compound 0.316 µM
# [12] = second compound 0.00949 µM, first compound 1 µM
# [13] = second compound 0.03 µM, first compound 0.0316 µM
# [14] = second compound 0.03 µM, first compound 0.1 µM
# [15] = second compound 0.03 µM, first compound 0.316 µM
# [16] = second compound 0.03 µM, first compound 1 µM
# [17] = second compound 0.0949 µM, first compound 0.0316 µM
# [18] = second compound 0.0949 µM, first compound 0.1 µM
# [19] = second compound 0.0949 µM, first compound 0.316 µM
# [20] = second compound 0.0949 µM, first compound 1 µM
# [21] = second compound 0.3 µM, first compound 0.0316 µM
# [22] = second compound 0.3 µM, first compound 0.1 µM
# [23] = second compound 0.3 µM, first compound 0.316 µM
# [24] = second compound 0.3 µM, first compound 1 µM
# 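Further: spheroids exposed to compounds for 7 days before readout.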
# 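Wherever viability, T/C is given: 100% = DMSO vehicle control viability.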
smiles,measurement,setting,value
C=CC(=O)N1CCN(c2nc(OCC3CCCN3C)nc3c(F)c(-c4nc(N)cc(C)c4C(F)(F)F)c(Cl)cc23)C(C)C1 (stereo not drawn) + CCn1c(-c2cccnc2C(C)OC)c2c3cc(ccc31)N1CCOC(CC(NC(=O)C(C(C)C)N(C)C(=O)C3(F)CCN(C(=O)C#CC(C)(C)N(C)C)CC3)C(=O)N3CCCC(N3)C(=O)OCC(C)(C)C2)C1,IC50,second compound 0.000949 µM,< 3.16 nM
same,IC50,second compound 0.003 µM,< 3.16 nM
same,IC50,second compound 0.00949 µM,< 3.16 nM
same,IC50,second compound 0.03 µM,< 3.16 nM
same,IC50,second compound 0.0949 µM,< 3.16 nM
same,IC50,second compound 0.3 µM,< 3.16 nM
same,"viability, T/C","second compound 0.000949 µM, first compound 0.00316 µM",22.3%
same,"viability, T/C","second compound 0.000949 µM, first compound 0.01 µM",23.4%
same,"viability, T/C",[1],20.6%
same,"viability, T/C",[2],22.8%
same,"viability, T/C",[3],22.8%
same,"viability, T/C",[4],19.9%
same,"viability, T/C","second compound 0.003 µM, first compound 0.00316 µM",26.6%
same,"viability, T/C","second compound 0.003 µM, first compound 0.01 µM",22.7%
same,"viability, T/C",[5],21.4%
same,"viability, T/C",[6],24.5%
same,"viability, T/C",[7],23.2%
same,"viability, T/C",[8],19%
same,"viability, T/C","second compound 0.00949 µM, first compound 0.00316 µM",24.7%
same,"viability, T/C","second compound 0.00949 µM, first compound 0.01 µM",21.1%
same,"viability, T/C",[9],22.7%
same,"viability, T/C",[10],23.4%
same,"viability, T/C",[11],20.6%
same,"viability, T/C",[12],20.5%
same,"viability, T/C","second compound 0.03 µM, first compound 0.00316 µM",22.4%
same,"viability, T/C","second compound 0.03 µM, first compound 0.01 µM",22.5%
same,"viability, T/C",[13],25.3%
same,"viability, T/C",[14],24.8%
same,"viability, T/C",[15],18.7%
same,"viability, T/C",[16],23.6%
same,"viability, T/C","second compound 0.0949 µM, first compound 0.00316 µM",22.7%
same,"viability, T/C","second compound 0.0949 µM, first compound 0.01 µM",23.9%
same,"viability, T/C",[17],23.4%
same,"viability, T/C",[18],23.4%
same,"viability, T/C",[19],22.6%
same,"viability, T/C",[20],25.4%
same,"viability, T/C","second compound 0.3 µM, first compound 0.00316 µM",22.7%
same,"viability, T/C","second compound 0.3 µM, first compound 0.01 µM",25%
same,"viability, T/C",[21],22.4%
same,"viability, T/C",[22],21.4%
same,"viability, T/C",[23],21%
same,"viability, T/C",[24],28%
Nc1ccn(C2OC(CO)C(O)C2(F)F)c(=O)n1 (stereo not drawn),"viability, T/C",compound 0.0316 µM,56.4% [middle of 4 runs]
same,"viability, T/C",compound 0.1 µM,57.3% [middle of 4 runs]
same,"viability, T/C",compound 0.316 µM,52.7% [middle of 4 runs]
same,"viability, T/C",compound 1 µM,43% [middle of 4 runs]
CC(Nc1ccc2c(c1)OCCn1cc(N3C(=O)OCC3C(F)F)nc1-2)C(N)=O (stereo not drawn) + CCn1c(-c2cc(N3CCN(C)CC3)cnc2C(C)OC)c2c3cc(ccc31)-c1csc(n1)CC(NC(=O)C1CC1C)C(=O)N1CCCC(N1)C(=O)OCC(C)(C)C2,IC50,second compound 0.000949 µM,< 31.6 nM
same,IC50,second compound 0.003 µM,< 31.6 nM
same,IC50,second compound 0.00949 µM,< 31.6 nM
same,IC50,second compound 0.03 µM,< 31.6 nM
same,IC50,second compound 0.0949 µM,< 31.6 nM
same,IC50,second compound 0.3 µM,< 31.6 nM
same,"viability, T/C",[1],26%
same,"viability, T/C",[2],23.3%
same,"viability, T/C",[3],18.9%
same,"viability, T/C",[4],21.3%
same,"viability, T/C","second compound 0.000949 µM, first compound 3.16 µM",20.5%
same,"viability, T/C","second compound 0.000949 µM, first compound 10 µM",12.1%
same,"viability, T/C",[5],19.4%
same,"viability, T/C",[6],15.9%
same,"viability, T/C",[7],13.4%
same,"viability, T/C",[8],14.2%
same,"viability, T/C","second compound 0.003 µM, first compound 3.16 µM",11.7%
same,"viability, T/C","second compound 0.003 µM, first compound 10 µM",7.42%
same,"viability, T/C",[9],14.2%
same,"viability, T/C",[10],10.3%
same,"viability, T/C",[11],11.2%
same,"viability, T/C",[12],9.14%
same,"viability, T/C","second compound 0.00949 µM, first compound 3.16 µM",7.89%
same,"viability, T/C","second compound 0.00949 µM, first compound 10 µM",5.97%
same,"viability, T/C",[13],12.3%
same,"viability, T/C",[14],10.6%
same,"viability, T/C",[15],10.1%
same,"viability, T/C",[16],8.95%
same,"viability, T/C","second compound 0.03 µM, first compound 3.16 µM",11.8%
same,"viability, T/C","second compound 0.03 µM, first compound 10 µM",6.96%
same,"viability, T/C",[17],11.5%
same,"viability, T/C",[18],8.85%
same,"viability, T/C",[19],9.23%
same,"viability, T/C",[20],8.74%
same,"viability, T/C","second compound 0.0949 µM, first compound 3.16 µM",7.5%
same,"viability, T/C","second compound 0.0949 µM, first compound 10 µM",6.53%
same,"viability, T/C",[21],11.4%
same,"viability, T/C",[22],9.97%
same,"viability, T/C",[23],9.41%
same,"viability, T/C",[24],6.86%
same,"viability, T/C","second compound 0.3 µM, first compound 3.16 µM",6.29%
same,"viability, T/C","second compound 0.3 µM, first compound 10 µM",6.96%
